The nature of assay [1]: Luminescence Cell-Based Dose Retest to Confirm Inhibitors of Cancer Stem Cells. [Related pubchem assays (depositor defined):AID2717, AID2721]. Type of assay: functional. Conditions: Homo sapiens.
Another assay addresses Beta Lactamase (Pseudomonas aeruginosa, UniProt Q932Y6). Put plainly: BLA reporter interference, concentration series – BLA reporter cells, FRET fluorescence, artefact control for TLR9-MyD88 binding inhibitor project, dose response (AID 588341).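 Also: cell based assay in CHO-K1 cells stably expressing beta-lactamase.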 The assay is classed as cell-based.
Assay [2] can be described thus: luciferase reporter signal suppression in cells – H4 neuroglioma cells, luminescence, dose response (AID 1990). The assay is classed as functional, cell-based. For orientation: A reporter such as luciferase makes a cellular process visible.
In a further assay the test system is CHO. As to the kind of experiment: CHO cell viability loss, potency – luminescence, cytotoxicity control for TLR9-MyD88 binding inhibitor project, dose response (AID 588339).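 Also: CHO cells stably coexpressing TLR9 and MyD88 fusions from primary screen; compound exposure lasted 48 hours before viability readout.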 Type of assay: functional, cell-based, hamster. Particulars: Cricetulus griseus.
Assay [3] is described as follows: alpha-synuclein stem-loop luciferase translation blockers – H4 neuroglioma cells, luminescence, confirmation (AID 1988). The assay is classed as functional, cell-based.
Assay [4] in a line: reduction of Shn3 3'UTR-driven luciferase in osteoblasts – cell-based, Clone20 osteoblasts, firefly luciferase, cherry-picked, dose response (AID 624132).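 Also: firefly luciferase luminescence from reporter carrying the Shn3 3'UTR in osteoblasts.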 The assay is classed as functional.
The next assay concerns INS1. As to the kind of experiment: INS-1E survival protection against cytokine death – cell-based, luminescence, retest, dose response (AID 449756).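 Also: cell death triggered by IL-1 beta plus TNF-alpha plus IFN-gamma mixture; protective hits raise ATP signal compared with cytokine alone wells.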 The assay is classed as functional. Particulars: Rattus norvegicus.
The nature of assay [5]: Luminescence Cell-Based Dose Response HTS to Identify Inhibitors of 5'UTR Stem-Loop Driven Prion Protein mRNA Translation in H4 Neuroglioblastoma Cells. [Related pubchem assays: 1827 (Project Summary), 1813 (Primary HTS)]. The assay is classed as functional.
The nature of assay [6]: non-specific 3'UTR reporter inhibition in Clone20-Shn3RL – cell-based, Renilla luciferase, cherry-picked, counter-screen for Shn3 inhibitor project, dose response (AID 624133). The assay is classed as functional. (In general: A counterscreen serves to expose hits that act by an unwanted route or on another target.)
Assay [7] in a line: loss of viability in HepG2 cells – cell-based, CellTiter-Glo, cherry-picked, cytotoxicity control for Shn3 inhibitor project, dose response (AID 624134). Type of assay: functional. On the technique in general: In ATP-based viability assays light output follows the ATP content of the culture.
In a further assay the target is Beta-galactosidase (Escherichia coli, UniProt Q8VNN2). As to the kind of experiment: PubChem AID 485352. Type of assay: functional.
Assay [8] has as its target Heat shock protein HSP 90-alpha (Homo sapiens, UniProt P07900). The assay is classed as functional, organism-based.
For assay [9], the target named is T1, Type-1 angiotensin II receptor (Homo sapiens, UniProt P30556).
T1 sequence (P30556 whole entry): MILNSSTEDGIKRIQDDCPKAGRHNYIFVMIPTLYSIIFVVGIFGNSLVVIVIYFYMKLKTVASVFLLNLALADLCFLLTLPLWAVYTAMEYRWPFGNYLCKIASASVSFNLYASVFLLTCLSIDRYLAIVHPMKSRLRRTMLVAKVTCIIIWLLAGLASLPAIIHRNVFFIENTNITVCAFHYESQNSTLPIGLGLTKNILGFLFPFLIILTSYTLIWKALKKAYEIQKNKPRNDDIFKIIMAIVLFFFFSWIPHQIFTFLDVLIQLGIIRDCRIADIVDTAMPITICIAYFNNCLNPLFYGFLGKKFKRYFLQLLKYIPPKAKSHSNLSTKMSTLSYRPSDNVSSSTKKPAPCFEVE
Put plainly: antagonism of angiotensin II type 1 receptor – cell-based, uHTS hits, selectivity assay for APJ receptor antagonist project, dose response (AID 463214).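 Also: antagonist potency against angiotensin II stimulated AT1 response.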 The assay is classed as functional.

Assay [10] addresses T2, Endoribonuclease toxin MazF (Escherichia coli K-12, UniProt P0AE70).
T2 sequence (P0AE70 whole entry): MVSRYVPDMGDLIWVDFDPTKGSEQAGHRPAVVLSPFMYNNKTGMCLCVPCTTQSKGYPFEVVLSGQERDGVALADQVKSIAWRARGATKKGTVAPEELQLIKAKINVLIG
As to the kind of experiment: SAR analysis of small molecule activators of the MazEF TA System via a fluorescence-based single-stranded RNase assay counterscreen. [Related pubchem assays (depositor defined):AID504720, AID504743]. Type of assay: functional.

The subject of another assay is MEF. Put plainly: SAR analysis of small molecule cytotoxicity of MazEF TA System activators in embryonic fibroblast (MEF) cells. [Related pubchem assays (depositor defined):AID504720, AID504743]. Type of assay: functional. Particulars: Mus musculus.
The target in assay [11] is T2, Endoribonuclease toxin MazF. As to the kind of experiment: substrate-only fluorescence increase artefacts – biochemical, single-stranded RNase substrate, counter-screen for MazEF activator project, dose response (AID 588502). Type of assay: functional.
The target is the same in assay [12]. As to the kind of experiment: activation of MazEF endoribonuclease cleavage – biochemical, fluorescence, single-stranded RNA substrate, uHTS hits, dose response (AID 588481). The assay is classed as functional.
Assay [13] has the same target. Put plainly: MazEF toxin-antitoxin RNase activation – biochemical, fluorescence, single-stranded RNA substrate, SAR follow-up (AID 588603). Type of assay: functional.
The target of assay [14] is T3, Caspase-3 (Homo sapiens, UniProt P42574).
T3 sequence (P42574 whole entry): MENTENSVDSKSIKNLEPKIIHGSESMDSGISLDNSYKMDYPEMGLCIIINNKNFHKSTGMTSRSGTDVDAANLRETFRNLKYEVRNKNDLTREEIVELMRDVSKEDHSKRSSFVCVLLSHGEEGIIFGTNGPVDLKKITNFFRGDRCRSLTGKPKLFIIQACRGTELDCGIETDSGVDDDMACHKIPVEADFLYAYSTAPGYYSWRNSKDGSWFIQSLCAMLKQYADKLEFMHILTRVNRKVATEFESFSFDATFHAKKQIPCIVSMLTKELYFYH
As to the kind of experiment: inhibition of recombinant caspase-3 activity – biochemical, luminescence, set 2, selectivity assay for SENP protease inhibitor project, SAR follow-up (AID 588599). The assay is classed as functional.

The target of assay [15] is T4, Sentrin-specific protease 6 (Homo sapiens, UniProt Q9GZR1).
T4 sequence (Q9GZR1 whole entry): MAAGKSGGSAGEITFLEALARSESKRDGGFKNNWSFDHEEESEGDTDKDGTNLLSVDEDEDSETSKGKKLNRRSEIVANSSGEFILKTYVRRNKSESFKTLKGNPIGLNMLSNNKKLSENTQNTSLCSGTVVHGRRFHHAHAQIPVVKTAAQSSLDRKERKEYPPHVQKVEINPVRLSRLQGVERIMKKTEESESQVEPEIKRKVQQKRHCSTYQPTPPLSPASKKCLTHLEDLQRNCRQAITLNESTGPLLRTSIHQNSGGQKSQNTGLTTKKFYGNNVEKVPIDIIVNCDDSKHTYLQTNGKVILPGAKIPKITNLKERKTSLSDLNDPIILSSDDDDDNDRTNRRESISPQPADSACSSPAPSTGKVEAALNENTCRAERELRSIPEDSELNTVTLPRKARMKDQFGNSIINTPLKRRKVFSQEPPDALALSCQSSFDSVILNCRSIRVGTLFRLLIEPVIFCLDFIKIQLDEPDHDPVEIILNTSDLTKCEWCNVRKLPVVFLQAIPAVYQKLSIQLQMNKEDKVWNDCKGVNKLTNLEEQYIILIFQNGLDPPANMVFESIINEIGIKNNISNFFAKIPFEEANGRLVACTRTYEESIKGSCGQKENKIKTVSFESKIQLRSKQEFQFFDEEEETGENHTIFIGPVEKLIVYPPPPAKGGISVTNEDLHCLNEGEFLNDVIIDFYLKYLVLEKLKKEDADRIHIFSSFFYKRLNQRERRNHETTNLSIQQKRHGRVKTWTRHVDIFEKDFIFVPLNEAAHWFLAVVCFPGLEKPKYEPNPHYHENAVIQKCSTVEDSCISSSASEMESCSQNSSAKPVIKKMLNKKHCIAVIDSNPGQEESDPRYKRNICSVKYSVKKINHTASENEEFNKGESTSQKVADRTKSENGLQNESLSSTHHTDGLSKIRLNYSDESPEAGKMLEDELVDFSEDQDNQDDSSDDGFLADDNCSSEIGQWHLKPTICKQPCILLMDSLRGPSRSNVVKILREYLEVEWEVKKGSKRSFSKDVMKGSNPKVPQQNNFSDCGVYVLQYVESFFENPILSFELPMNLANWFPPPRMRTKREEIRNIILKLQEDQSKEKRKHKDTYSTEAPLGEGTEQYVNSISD
Put plainly: SAR Analysis of small molecule inhibitors of Sentrin-specific protease 6 (SENP6) using a Luminescent assay. [Related pubchem assays (depositor defined):AID2582, AID2599]. Type of assay: functional.

Assay [16] has as its target T5, Sentrin-specific protease 7 (Homo sapiens, UniProt Q9BQF6).
T5 sequence (Q9BQF6 whole entry): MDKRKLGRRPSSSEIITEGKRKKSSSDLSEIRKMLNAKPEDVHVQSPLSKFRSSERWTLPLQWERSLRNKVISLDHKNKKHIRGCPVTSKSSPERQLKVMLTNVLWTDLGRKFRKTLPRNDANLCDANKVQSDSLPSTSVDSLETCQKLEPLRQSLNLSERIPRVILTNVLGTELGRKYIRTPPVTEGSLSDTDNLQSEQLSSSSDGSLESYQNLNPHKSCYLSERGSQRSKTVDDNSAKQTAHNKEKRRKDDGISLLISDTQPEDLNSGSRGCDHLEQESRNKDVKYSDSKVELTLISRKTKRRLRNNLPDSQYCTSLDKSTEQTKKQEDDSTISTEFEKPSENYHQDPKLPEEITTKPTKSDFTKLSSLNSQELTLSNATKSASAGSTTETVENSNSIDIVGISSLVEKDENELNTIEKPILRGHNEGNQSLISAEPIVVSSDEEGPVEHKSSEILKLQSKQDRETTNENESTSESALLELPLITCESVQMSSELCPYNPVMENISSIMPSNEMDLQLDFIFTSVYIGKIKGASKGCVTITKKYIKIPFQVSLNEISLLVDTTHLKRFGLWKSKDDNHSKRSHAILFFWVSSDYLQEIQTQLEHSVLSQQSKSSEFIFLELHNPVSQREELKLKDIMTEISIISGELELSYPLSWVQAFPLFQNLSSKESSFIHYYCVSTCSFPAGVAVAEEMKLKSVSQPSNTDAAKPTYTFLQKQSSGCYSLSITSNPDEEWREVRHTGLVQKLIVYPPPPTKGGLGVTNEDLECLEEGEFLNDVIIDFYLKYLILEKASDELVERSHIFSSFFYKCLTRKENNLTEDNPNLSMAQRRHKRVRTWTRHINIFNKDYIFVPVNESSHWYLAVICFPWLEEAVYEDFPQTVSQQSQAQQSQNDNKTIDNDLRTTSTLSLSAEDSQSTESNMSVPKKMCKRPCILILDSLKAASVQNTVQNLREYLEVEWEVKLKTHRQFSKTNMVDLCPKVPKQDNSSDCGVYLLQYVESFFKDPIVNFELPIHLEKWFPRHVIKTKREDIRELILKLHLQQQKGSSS
As to the kind of experiment: inhibition of human SENP7 cleavage activity – biochemical, luminescence, SAR follow-up (AID 504497). Type of assay: functional.

In assay [17] the target is T3, Caspase-3. Put plainly: SAR Analysis of small molecule inhibitors of Sentrin-specific proteases (SENPs) using a Caspase-3 Selectivity assay. [Related pubchem assays (depositor defined):AID2540, AID2599, AID434973, AID489001]. Type of assay: functional.
Assay [18] has as its target T6, Sentrin-specific protease 8 (Homo sapiens, UniProt Q96LD8).
T6 sequence (Q96LD8 whole entry): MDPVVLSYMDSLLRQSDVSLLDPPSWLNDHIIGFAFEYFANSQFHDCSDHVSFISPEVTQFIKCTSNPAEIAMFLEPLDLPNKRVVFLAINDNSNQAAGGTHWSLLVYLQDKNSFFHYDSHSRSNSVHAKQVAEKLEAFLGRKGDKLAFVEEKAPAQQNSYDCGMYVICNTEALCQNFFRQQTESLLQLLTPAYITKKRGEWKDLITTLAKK
As to the kind of experiment: inhibition of sentrin protease 8 – biochemical, luminescence, set 2, SAR follow-up (AID 588601). The assay is classed as functional.

Assay [19] has as its target T4, Sentrin-specific protease 6. As to the kind of experiment: inhibition of human SENP6 catalytic domain – biochemical, luminescence, set 2, SAR follow-up (AID 588598). The assay is classed as functional.
Assay [20] addresses T5, Sentrin-specific protease 7. Put plainly: inhibition of human SENP7 cleavage activity – biochemical, luminescence, set 2, SAR follow-up (AID 588600). Type of assay: functional.
The target of assay [21] is T6, Sentrin-specific protease 8. Put plainly: inhibition of human SENP8 cleavage activity – biochemical, luminescence, SAR follow-up (AID 504501). The assay is classed as functional.

Calls of active or inactive are those of the source.

Beta Lactamase, sequence (Q932Y6 whole entry): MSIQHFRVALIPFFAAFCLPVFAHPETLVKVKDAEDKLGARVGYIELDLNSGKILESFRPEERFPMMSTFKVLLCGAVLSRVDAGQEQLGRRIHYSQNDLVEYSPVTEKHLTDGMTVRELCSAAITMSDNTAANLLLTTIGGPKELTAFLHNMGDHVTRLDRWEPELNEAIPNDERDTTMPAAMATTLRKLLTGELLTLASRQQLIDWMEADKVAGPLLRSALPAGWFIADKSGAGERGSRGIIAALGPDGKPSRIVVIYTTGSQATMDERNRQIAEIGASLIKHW
Beta-galactosidase, sequence (Q8VNN2 whole entry): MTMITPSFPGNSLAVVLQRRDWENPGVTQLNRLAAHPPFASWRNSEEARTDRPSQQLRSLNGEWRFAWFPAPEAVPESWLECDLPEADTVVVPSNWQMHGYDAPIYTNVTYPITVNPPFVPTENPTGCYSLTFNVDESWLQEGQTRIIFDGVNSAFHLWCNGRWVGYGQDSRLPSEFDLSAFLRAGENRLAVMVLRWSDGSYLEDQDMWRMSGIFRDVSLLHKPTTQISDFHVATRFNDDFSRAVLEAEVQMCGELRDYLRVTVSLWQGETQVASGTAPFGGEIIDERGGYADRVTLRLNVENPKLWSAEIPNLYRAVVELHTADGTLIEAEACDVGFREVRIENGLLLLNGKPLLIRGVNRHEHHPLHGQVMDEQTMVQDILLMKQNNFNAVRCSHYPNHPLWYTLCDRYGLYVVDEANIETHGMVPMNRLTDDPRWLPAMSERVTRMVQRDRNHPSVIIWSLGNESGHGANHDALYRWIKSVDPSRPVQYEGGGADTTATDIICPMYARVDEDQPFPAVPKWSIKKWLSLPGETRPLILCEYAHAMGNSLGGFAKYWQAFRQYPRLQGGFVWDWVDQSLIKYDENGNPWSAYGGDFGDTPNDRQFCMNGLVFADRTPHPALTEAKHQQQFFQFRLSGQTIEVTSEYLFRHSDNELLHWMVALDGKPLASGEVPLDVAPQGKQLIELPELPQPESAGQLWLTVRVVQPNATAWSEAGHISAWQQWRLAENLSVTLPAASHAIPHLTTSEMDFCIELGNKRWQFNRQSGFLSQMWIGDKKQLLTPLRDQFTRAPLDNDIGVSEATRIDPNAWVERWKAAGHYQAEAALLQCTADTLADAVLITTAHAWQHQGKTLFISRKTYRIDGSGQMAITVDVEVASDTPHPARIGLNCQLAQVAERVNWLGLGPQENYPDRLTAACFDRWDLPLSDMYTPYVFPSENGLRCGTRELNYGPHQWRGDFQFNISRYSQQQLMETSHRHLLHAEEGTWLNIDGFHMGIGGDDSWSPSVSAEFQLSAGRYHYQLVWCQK

A word on the AC50: it is the midpoint of the concentration-response curve, whichever way the signal moves. As a reminder, the IC50 is the point on the concentration scale where inhibition reaches its midpoint. One may read the EC50 as the concentration giving half of the maximal effect. For the compound `COc1ccc(OC)c(NC(=O)c2nc(S(=O)(=O)Cc3ccccc3)ncc2Cl)c1`, the AC50 in assay [1] is 3.48 µM (active); in [4], 2.08 µM (active); with INS1, 5.38 µM (active); in [6], 3.79 µM (active); in assay [7] it was 13.7 µM (active); in assay [8], 2.95 µM (active). For the same compound, the IC50 on Beta Lactamase is 6.72 µM (active); in the assay with CHO, 1.05 µM (active); in assay [9], 5.87 µM (active). Further, the EC50 was 12.2 µM (active) in assay [2], 11.6 µM (active) in [3], > 120 µM (not active) in [5] and > 40 µM (inactive) on Beta-galactosidase.

What is called CC50 is the concentration at which the toxic effect on the cells reaches its halfway point. As for `Cc1ccc2nc(NCCc3ccc(Cl)cc3)c3nncn3c2c1`, the EC50 in assay [10] was > 99 µM (inactive); in assay [11], > 99 µM (inactive); in [12] it was 33.1 µM (inactive); in [13], 17.7 µM (active). Further, the CC50 with MEF was > 99 µM (inactive).

As to `O=C(Nc1nc2ccccc2s1)c1cccs1`, the IC50 at Caspase-3 [14] was 6.86 µM (active); in assay [15], > 99 µM (inactive); in assay [16], 2.5 µM (active); at Caspase-3 [17] it was 72 µM (active); in assay [18], 2.2 µM (active); in assay [19] it was 2.07 µM (active). Moreover, the IC50 in assay [20] is 2.67 µM (active); in assay [21], > 99 µM (inactive).

These data come from ChEMBL document CHEMBL1201862, “PubChem BioAssay data set” (2004).
